Laboratory results published in patent publication US20140295425A1, “Diagnosis for Alzheimer's Disease” (The University of Birmingham, priority 2011, published 2014).

System: lymphocytes
Test: Two-colour microarray gene expression analysis of lymphocytes treated with rapamycin vs untreated
Assay type: cell-based, human
Conditions: rapamycin 100 ng/ml, 24 h
Protocol: Two-colour microarray based gene expression analysis (Agilent Technologies) was used to identify genes that were differentially expressed in lymphocytes treated with rapamycin compared to lymphocytes that were left untreated. The microarray used was the Agilent Whole Human Genome Microarray: 4×44K.
Two parallel lymphocyte cultures were set up in RPMI medium supplemented with 10% FCS at a concentration of 1×10^6 cells per 1 ml of culture media. Phytohaemaglutinin (PHA) was added to the cultures at a final concentration of 22 μg/ml to activate the lymphocytes. Cultures were incubated for 48 hours at 37° C. in a humidified atmosphere containing 5% CO2. After 48 hours culture, one culture was treated with 100 ng/ml rapamycin, while the other untreated culture was kept as a control. After a further 24 hours, the cells of each lymphocyte culture were harvested by centrifugation.
RNA was extracted from the lymphocyte pellets using TRI Reagent® in accordance with standard protocol. To ensure that there was no DNA contamination, the RNA was treated with DNase (Qiagen) according to the manufacturer's standard protocol. RNA quality was determined by RNA nano-chip analysis using an Agilent 2100 Bioanalyser, also according to standard protocol. The RNA quality of the samples ranged from 8-10 RNA Integrity Number (RIN), indicative of good quality RNA suitable for gene expression microarray.
200 ng of RNA was converted to cDNA with the low-input quick amplification labelling kit (Agilent, 5190-2305). Spike Mix A and B were prepared separately. For each, the spike mix was thawed and vortexed, incubated at 37° C. for 5 minutes, and diluted in the provided dilution buffer (see Table 3 for dilution protocol). 2 μl of diluted spike mix A and spike mix B were added to 200 ng of RNA in a 1.5 μl volume from the rapamycin-treated and untreated lymphocytes respectively. […] The samples were incubated at 65° C. for 10 minutes, and placed on ice for 5 minutes. 4.7 μl of the cDNA master mix was added per sample, and samples incubated at 40° C. for 2 hours; 70° C. for 15 minutes; and placed on ice for 5 minutes.
The low-input quick amplification labelling kit (Agilent, 5190-2305) was used to convert the cDNA to labelled cRNA. Spike Mix A samples were added to transcription master mix prepared with Cyanine 3-CTP (green), whereas Spike Mix B samples were added to transcription master mix prepared with Cyanine 5-CTP (red). 6 μl of the transcription master mix was added per 10 μl cDNA sample, and incubated at 40° C. for 2 hours.
The cRNA was purified by standard RNeasy mini column protocol (Qiagen). The cRNA was quantified with a nanodrop spectrophotometer on the Microarray setting. The yield and specific activity of the cRNA samples were calculated as follows: […]
825 ng of labelled cRNA was added to various fragmentation components as described in Table 7, incubated at 60° C. for 30 minutes, and cooled on ice for 1 minute. 55 μl of GEx Hybridisation buffer HI-RPM was subsequently added to stop fragmentation. The samples were mixed, centrifuged at 13,000 rotations per minute (RPM) for 1 minute, and placed on ice in preparation for microarray assembly. The microarray of choice was the 4×44K Agilent Whole Human Genome Microarray. A clean gasket slide was placed into the chamber base, 100 μl of sample dispensed per well, and array placed onto the gasket slide to facilitate hybridisation. The gasket and microarray slides were clamped together and incubated at 65° C. for 17 hours.
Following hybridisation, the microarrays were washed in various wash solutions as described in Table 8. To summarise, the microarrays were removed from the hybridisation assembly and carefully separated from the gasket slide whilst fully submersed in wash buffer 1. Slides were washed for 1 minute, transferred to wash buffer 2 at 37° C. for 1 minute, and washed in acetonitrile for 10 seconds. The final wash was in stabilisation and drying solution for 30 seconds. […]

SMILES: CO[C@H]1C[C@@H]2CC[C@@H](C)[C@@](O)(O2)C(=O)C(=O)N2CCCC[C@H]2C(=O)O[C@H]([C@H](C)C[C@@H]2CC[C@@H](O)[C@H](OC)C2)CC(=O)[C@H](C)/C=C(\C)[C@@H](O)[C@@H](OC)C(=O)[C@H](C)C[C@H](C)/C=C/C=C/C=C/1C [rapamycin]
- Fold change (gene ACPP (up-regulated)): 1.769
- Fold change (gene ACSL6 (down-regulated)): −1.795
- Fold change (gene ACSS1 (up-regulated)): 1.212
- Fold change (gene ADAMTS15 (up-regulated)): 1.095
- Fold change (gene ADAMTS16 (down-regulated)): −1.497
- Fold change (gene ADH6 (up-regulated)): 1.177
- Fold change (gene ADSSL1 (up-regulated)): 0.8544
- Fold change (gene ALDH1A3 (up-regulated)): 1.792
- Fold change (gene AMY1C, symbol AMY1A (includes others) (up-regulated)): 0.8998
- Fold change (gene AP1S1 (down-regulated)): −1.488
- Fold change (gene B3GALT4 (up-regulated)): 1.175
- Fold change (gene B4GALT6 (up-regulated)): 1.07
- Fold change (gene BMP7 (up-regulated)): 1.123
- Fold change (gene CA6 (up-regulated)): 1.029
- Fold change (gene CCL1 (up-regulated)): 1.135
- Fold change (gene CCL2 (down-regulated)): −2.661
- Fold change (gene CCL8 (down-regulated)): −2.62
- Fold change (gene CCL26 (up-regulated)): 1.662
- Fold change (gene COL8A2 (down-regulated)): −1.411
- Fold change (gene CROT (down-regulated)): −2.4978
- Fold change (gene CTSF (up-regulated)): 1.61
- Fold change (gene CYP3A5 (up-regulated)): 1.214
- Fold change (gene CYP4F3 (up-regulated)): 1.395
- Fold change (gene CYP4V2 (up-regulated)): 0.8253
- Fold change (gene CYP4X1 (up-regulated)): 1.062
- Fold change (gene DCLK1 (up-regulated)): 1.437
- Fold change (gene DHRS3 (up-regulated)): 0.8206
- Fold change (gene DTD1 (up-regulated)): 1.511
- Fold change (gene DUSP13 (up-regulated)): 1.045
- Fold change (gene DYNC2LI1 (down-regulated)): −1.902
- Fold change (gene DZIP3 (up-regulated)): 0.8533
- Fold change (gene EGLN3 (down-regulated)): −1.959
- Fold change (gene F9 (up-regulated)): 1.605
- Fold change (gene FGF2 (down-regulated)): −2.241
- Fold change (gene FGF18 (down-regulated)): −1.255
- Fold change (gene FJX1 (down-regulated)): −2.328
- Fold change (gene FUT9 (down-regulated)): −1.648
- Fold change (gene GBP3 (up-regulated)): 0.8462
- Fold change (gene GDA (up-regulated)): 1.596
- Fold change (gene GNAL (up-regulated)): 0.996
- Fold change (gene GPAM (down-regulated)): −1.231
- Fold change (gene GPX6 (up-regulated)): 1.702
- Fold change (gene HCK (down-regulated)): −1.403
- Fold change (gene HSD17B13 (up-regulated)): 1.51
- Fold change (gene IGBP1 (up-regulated)): 0.8038
- Fold change (gene IGF2 (up-regulated)): 1.185
- Fold change (gene IL1B (up-regulated)): 1.136
- Fold change (gene IL1RN (up-regulated)): 1.004
- Fold change (gene IL2 (down-regulated)): −1.407
- Fold change (gene IL3 (down-regulated)): −2.123
- Fold change (gene IL6 (down-regulated)): −1.3333
- Fold change (gene IL10 (down-regulated)): −2.727
- Fold change (gene INPP5E (down-regulated)): −1.4981
- Fold change (gene INPP5K (up-regulated)): 0.7753
- Fold change (gene JAK1 (up-regulated)): 0.8726
- Fold change (gene LEFTY1 (up-regulated)): 1.067
- Fold change (gene LEP (up-regulated)): 1.281
- Fold change (gene LIPF (up-regulated)): 1.349
- Fold change (gene LOXL3 (down-regulated)): −1.3654
- Fold change (gene MMP9 (up-regulated)): 1.152
- Fold change (gene MOXD1 (down-regulated)): −2.421
- Fold change (gene MPP4 (up-regulated)): 0.8611
- Fold change (gene MTHFR (up-regulated)): 0.8153
- Fold change (gene OGN (up-regulated)): 1.567
- Fold change (gene PAOX (up-regulated)): 0.8572
- Fold change (gene PDE1A (up-regulated)): 1.31
- Fold change (gene PDE4C (up-regulated)): 1.017
- Fold change (gene PDK4 (up-regulated)): 0.8187
- Fold change (gene PIM1 (up-regulated)): 1.101
- Fold change (gene PITPNM2 (up-regulated)): 0.8702
- Fold change (gene PLAT (up-regulated)): 0.8897
- Fold change (gene PLB1 (up-regulated)): 1.566
- Fold change (gene PLD1 (up-regulated)): 0.9334
- Fold change (gene PLGLB1, symbol PLGLB1/PLGLB2 (up-regulated)): 0.9441
- Fold change (gene PON3 (up-regulated)): 1.013
- Fold change (gene PRKG1 (down-regulated)): −1.116
- Fold change (gene PRODH2 (up-regulated)): 1.716
- Fold change (gene PRSS23 (up-regulated)): 1.012
- Fold change (gene PTGS2 (down-regulated)): −1.2871
- Fold change (gene PYCR1 (down-regulated)): −1.294
- Fold change (gene RAB37 (up-regulated)): 0.9052
- Fold change (gene RAB39 (up-regulated)): 0.8095
- Fold change (gene RND3 (up-regulated)): 0.9124
- Fold change (gene RPS6KB1 (up-regulated)): 1.481
- Fold change (gene RRAD (down-regulated)): −1.632
- Fold change (gene SGTA (down-regulated)): −1.403
- Fold change (gene SPP1 (up-regulated)): 1.471
- Fold change (gene SPRED2 (up-regulated)): 0.825
- Fold change (gene ST3GAL6 (up-regulated)): 1.175
- Fold change (gene ST6GALNAC2 (down-regulated)): −1.242
- Fold change (gene STK31 (up-regulated)): 1.092
- Fold change (gene STS (up-regulated)): 0.8677
- Fold change (gene TAC1 (down-regulated)): −1.262
- Fold change (gene TDH (up-regulated)): 1.414
- Fold change (gene THBS1 (down-regulated)): −1.359
- Fold change (gene TRIB1 (up-regulated)): 1.07
- Fold change (gene UBE2M (down-regulated)): −1.504
- Fold change (gene ULK2 (up-regulated)): 1.069
- Fold change (gene WWP2 (up-regulated)): 0.9105
- Fold change (gene ZADH2 (up-regulated)): 1.005
